Measurements published in ChEMBL document CHEMBL1126539, “Oxazole, thiazole, and imidazole derivatives of 2,6-di-tert-butylphenol as dual 5-lipoxygenase and cyclooxygenase inhibitors” (Bioorg Med Chem Lett, 1993).

Experiments:
[1] = system: RBL-1; assay: Compound was tested for its inhibitory activity against LTB4 (5-LO) formation in RBL-1 cells stimulated with the calcium ionophore A-23187; type: functional, cell-based; conditions: Rattus norvegicus
[2] = system: RBL-1; assay: Compound was tested for its inhibitory activity against PGF-2 alpha (CO) formation in RBL-1 cells stimulated with the calcium ionophore A-23187; type: functional, cell-based; conditions: Rattus norvegicus
[3] = system: Rattus norvegicus; assay: Compound was tested for inhibition of edema in the carrageenan foot-pad edema test; inactive; type: functional

IC50 [1] [nM]	IC50 [2] [nM]	SMILES	Inhibition [3] [%]
1200	110	CC(C)(C)c1cc(/C=C2\SC(=N)NC2=O)cc(C(C)(C)C)c1O [DARBUFELONE]	–
24000	–	Cc1ccc(Cl)c(Nc2ccccc2C(=O)O)c1Cl [MECLOFENAMATE SODIUM]	–
1300	2100	CN1C(NC(=N)N)=NC(=O)/C1=C/c1cc(C(C)(C)C)c(O)c(C(C)(C)C)c1	<25
2800	650	CC(C)(C)c1cc(/C=C2\OC(=O)NC2=O)cc(C(C)(C)C)c1O	–
380	12	CC(C)(C)c1cc(/C=C2\SC(=S)NC2=O)cc(C(C)(C)C)c1O	–
–	350	CC(C)(C)c1cc(/C=C2\SC(=O)NC2=O)cc(C(C)(C)C)c1O	–
910	83	CC(C)(C)c1cc(/C=C2\SC(N=C(N)N)=NC2=O)cc(C(C)(C)C)c1O	–
170	790	CN1C(=S)NC(=O)/C1=C/c1cc(C(C)(C)C)c(O)c(C(C)(C)C)c1	<25
840	1700	CC(C)(C)c1cc(/C=C2\OC(=S)NC2=O)cc(C(C)(C)C)c1O	–
1200	340	CC(C)(C)c1cc(/C=C2\OC(N=C(N)N)=NC2=O)cc(C(C)(C)C)c1O	–
780	4600	CN1C(=O)NC(=O)/C1=C/c1cc(C(C)(C)C)c(O)c(C(C)(C)C)c1	<25
